We go through 13 compounds from US20110318738A1, “IDENTIFICATION AND REGULATION OF A NOVEL DNA DEMETHYLASE SYSTEM” (University of Utah Research Foundation, priority 2008, published 2011).

One data set has as its system HT29 and DLD1. The experiment in a line: Quantitative RT-PCR for AID, MBD4 and GADD45α in RA responsive colon carcinoma cell lines. Type of data set: cell-based. As to conditions: human colon cancer cell lines, ATRA 5 μM each day for two days; FIG. 11C.
The subject of data set [1] is apc^mcr zebrafish embryos. Briefly: Quantitative RT-PCR in apc mutant embryos after drug treatment. It counts as in vivo. The settings on record: for expression of aid, gadd45α and mbd4: all-trans retinoic acid 1 μM or NS-398 10 μM, FIG. 11A. On the procedure: Quantitative RT-PCR primers for amplification of zebrafish rdh1l (Nadauld et al., 2005), human DHRS9 (Jette et al., 2004) 28S rRNA (Eisinger et al., 2006), and h18S rRNA (Delaunay et al., 2000) were described previously, and are (hereby incorporated by reference in its entirety into this application). A template-free negative control was included in each experiment.
(§1) RNA from embryos or human adenoma tissues was isolated using Trizol (Invitrogen). cDNA library was prepared using Superscript III kit (Invitrogen). RT-PCR was performed on a Roche light cycler.

Data set [2] has as its system apc^mcr zebrafish embryos. Briefly: Whole mount in situ hybridization in apc mutant embryos. As to conditions: for gadd45α expression (% of embryos) / aid expression (% of embryos): apc^wt + DMSO 94%; for gadd45α expression (% of embryos): apc^mcr + DMSO 9%; for aid expression (% of embryos): apc^mcr + DMSO 17%; for mbd4 expression (% of embryos): apc^wt + DMSO 95%, apc^mcr + DMSO 3%; for irbp (% of embryos): apc^sib 96%.

The next data set deals with apc mutants (72 hpf). The experiment in a line: MeDIP-qPCR for various genes in apc mutants. It counts as in vivo, zebrafish. The settings on record: apc mutant embryos treated with RA; FIG. 11D. On the procedure:
(§2) Expression of genes are first normalized to 28S, and then to the control embryo mRNA/28S ratio, valued as 1. […] In panels A-C, expression of genes are normalized first to 28S (A-B) or 18S (C) and then to the control sample values as 1.
This procedure was described in Weber et al., 2007. Briefly, Dynabeads (conjugated with sheep anti-mouse secondary antibody, Invitrogen) were incubated with 10 μg of 5MeC antibody (Eurogentec) for 2 hrs, washed, and then incubated with 4 μg of sonicated DNA (300 bp-1000 bp fragments) overnight Immunoprecipitated DNA was amplified using for whole genome amplification kit (Sigma Aldrich). Following amplification, 2 μg of amplified DNA was labeled with Cy5, and 2 μg of input DNA was labeled with Cy3 (Bio labs). Samples were competitively hybridized to 244K oligonucleotide promoter arrays (Agilent Inc).
In general terms: Real-time PCR tracks product formation cycle by cycle.

Another data set has as its system wild type embryos. Briefly: Quantitative RT-PCR in RA deficiency models. The settings on record: DEAB treated wild type embryos; FIG. 11B. It counts as in vivo, zebrafish. On the procedure: as §2, §1
The test system of data set [3] is DLD1, SW480, and HT29 cells. The experiment in a line: Quantitative PCR measuring DHRS9 (RDHL) expression in colon cancer cell lines. Type of data set: cell-based, human. As to conditions: pargyline 3 mM, FIG. 14B.
A further data set deals with zebrafish embryos. The experiment in a line: Whole mount in situ hybridization for neuronal markers in morpholino-injected embryos. Type of data set: in vivo. The settings on record: morpholino injected at single-cell stage, 24 hpf; for Sox-2: embryos showing positive staining for the marker: Control Mo 97%; for Neurogenin-1: embryos showing positive staining for the marker: Control Mo 100%. How it is done:
Wild-type zebrafish (Tuebingen strain) were maintained in a 14 hr:10 hr light:dark cycle in a Z-Mod at 28.5° C. Embryos were injected at single-cell stage and then grown in a 28.5° C. incubator. Morpholinos were obtained from Gene-tools LLC Ltd. For these experiments, morpholino sequences were designed against the following:
Whole mount in situ hybridization was performed as described earlier in Rai et al., 2006 with digoxigenin (Roche) labeled probes against neurogenin-1 and sox-2.
To address whether AID/Apobec enzymes, Gadd45, or zebrafish Mbd4 have a role in the control of DNA methylation during normal zebrafish development, a subset of the enzyme family members were knocked down (by morpholino injection) and their impact on development was examined. Either AID, Gadd45α, or Mbd4 knockdown caused the loss of neurons at 24 hpf, shown by the absence of pro-neuronal markers such as neurogenin-1 or sox-2. […] As neurons form in mice lacking Mbd4 (or AID), zebrafish may rely more on these proteins for neurogenesis than do mice, or alternatively, neurogenesis in zebrafish may be more sensitive to misregulation of DNA methylation levels. […] The percentage listed depicts embryos showing positive staining for the marker indicated.

Setting [4] is: apc^mcr embryos, Table 6, apc^mcr 0%.
The mark [5] stands for this setting: apc^mcr embryos, Table 6, apc^sib 100%, apc^mcr 0%.

In the case of `CC1=C(/C=C/C(C)=C/C=C/C(C)=C/C(=O)O)C(C)(C)CCC1` [ATRA, all-trans retinoic acid], the “expression of the demethylase genes” value with HT29 and DLD1 is “suppressed expression”. In addition, the Cebpβ expression entry in data set [1] (APC mutants, RA treatment, FIG. 12A) is listed as “down regulated”. Further, the dnmt1 expression result in data set [1] (apc mutants, RA treatment) is recorded as “did not restore”. Moreover, in data set [1] (apc mutants), the “expression of aid, gadd45α and mbd4” value is reported as “greatly reduced”. In data set [1] (apc^mcr mutant embryos, ATRA 1 μM, FIG. 12A), the “expression of pou5f1” value is “reduced the expression”. In data set [2] (apc^mcr embryos, Table 4), the “gadd45α expression (% of embryos)” value is on record as 91%, the “aid expression (% of embryos)” value was determined as 85% and the “mbd4 expression (% of embryos)” value was 65%. The “dnmt1 expression (% of embryos)” value in data set [2] (apc^mcr embryos, Table 4, apc^wt + DMSO 97%, apc^mcr + DMSO 11%) is listed as 89%. The “expression of aldh1a2” value in data set [2] (apc^mcr mutant, rdh1l morphant or nls mutant zebrafish treated with RA) is given as “decreased the expression”. Moreover, the “DNA methylation on the panel of genes implicated in intestinal differentiation and proliferation” value in the data set on apc mutants (72 hpf) is on record as “reversed the loss of DNA methylation”.

For the compound `CS(=O)(=O)Nc1ccc([N+](=O)[O-])cc1OC1CCCCC1` [Cox-2 inh, NS-398], in data set [1] (apc mutants), the “expression of aid, gadd45α and mbd4” value was “little effect”. Also, in data set [2] (apc^mcr embryos, Table 4), the “gadd45α expression (% of embryos)” value came out at 8%, the “aid expression (% of embryos)” value is recorded as 20% and the “mbd4 expression (% of embryos)” value came to 9%%.

In the case of `CCN(CC)c1ccc(C=O)cc1` [DEAB, 4-(diethylamino) benzaldehyde], the “expression of the demethylase genes” value in the data set on wild type embryos was “increased expression”.

On to `CC1=C(/C=C/C(C)=C/C=C/C(C)=C/C=O)C(C)(C)CCC1` [RAL], for which the “intestinal differentiation marked by fabp2 expression” value in data set [2] (apc^mcr embryos treated with exogenous RAL) is recorded as “partially restored”. In addition, in data set [2] (apc^mcr embryos, Table 5, apc^wt + Control Mo 99%, mutant + Control Mo 3%), the “fabp2 (% of embryos)” value is listed as 59%.

Turning to `C#CCN(C)Cc1ccccc1` [pargyline], the “expression of rdh1l” value in data set [1] (apc^mcr zebrafish embryos, pargyline 3 mM, FIG. 15A) is “rescued expression”. Besides, the DHRS9 expression result in data set [3] was “upregulated”. Also, in data set [2] (apc^mcr zebrafish embryos, pargyline 3 mM), the “expression of fabp2” value is listed as “rescued expression”.

In the case of “AID Mo: morpholino against AID, 5′-GTTTTGTTTTCGCTTACCTGTCCAG-3′ (SEQ ID No. 1) (all phosphorodiamidate morpholino (PMO))”, in the data set with zebrafish embryos, the “Sox-2: embryos showing positive staining for the marker” value was 13% (n = 38) and the “Neurogenin-1: embryos showing positive staining for the marker” value was 12% (n = 50).

On to “Corest mo: morpholino 5′-CCTTCTCTAACATTGCGGGCATCTT-3′ (SEQ ID NO. 19) (all phosphorodiamidate morpholino (PMO))”, for which the “irbp (% of embryos)” value in data set [2] (setting [4]) was determined as 11%. Further, the “fabp2 (% of embryos)” value in data set [2] (setting [5]) is 79%.

As to “Gadd45α Mo: morpholino against Gadd45α, 5′-ATATAAAAACATACCTTTCCGTTGC-3′ (SEQ ID No. 4) (all phosphorodiamidate morpholino (PMO))”, in the data set on zebrafish embryos, the “Sox-2: embryos showing positive staining for the marker” value is reported as 33% (n = 48) and the “Neurogenin-1: embryos showing positive staining for the marker” value is on record as 11% (n = 52).

As to “Groucho2 mo: morpholino 5′-GCCCTGTGGATACATCTTGAAATGT-3′ (SEQ ID NO. 17) (all phosphorodiamidate morpholino (PMO))”, the “irbp (% of embryos)” value in data set [2] (setting [4]) was found to be 5%. In data set [2] (setting [5]), the “fabp2 (% of embryos)” value is on record as 95%, the “rdh1l (% of embryos)” value is recorded as 83% and the “trypsin (% of embryos)” value is listed as 86%.

“Lsd1 mo: morpholino 5′-GGTCTGACTTCTTATTGGACAACAT-3′ (SEQ ID NO. 18) (all phosphorodiamidate morpholino (PMO))”: the “irbp (% of embryos)” value in data set [2] (setting [4]) is reported as 8%. For the same compound, the “fabp2 (% of embryos)” value in data set [2] (setting [5]) came out at 83%.

With “Mbd4 Mo: morpholino against zMbd4, 5′-AGAGAGAAACACACCTGCTCGCTGC-3′ (SEQ ID No. 8) (all phosphorodiamidate morpholino (PMO))”, in the data set on zebrafish embryos, the “Sox-2: embryos showing positive staining for the marker” value is 15% (n = 53) and the “Neurogenin-1: embryos showing positive staining for the marker” value is 14% (n = 43).

In the case of “Pitx2 Mo: morpholino 5′-TTTATCAAACTTACTCGGACTCTGG-3′ (SEQ ID NO. 15) (all phosphorodiamidate morpholino (PMO))”, the “cyclinD1 (% of embryos)” value in data set [2] (apc^mcr embryos, Table 5, apc^wt + Control Mo 96%, mutant + Control Mo 17%) is given as 90%. The “Pcna (% of embryos)” value in data set [2] (apc^mcr embryos, Table 5, apc^wt + Control Mo 97%, mutant + Control Mo 10%) is given as 85%.

On to “Pou5f1 Mo: morpholino 5′-CGCTCTCTCCGTCATCTTTCCGCTA-3′ (SEQ ID NO. 14) (all phosphorodiamidate morpholino (PMO))”, for which, in data set [2] (apc^mcr embryos, Table 4), the “gadd45α expression (% of embryos)” value turned out to be 83%, the “aid expression (% of embryos)” value was found to be 81% and the “mbd4 expression (% of embryos)” value was 67%.
